Test results: US20040072737A1, “Echinocandin derivatives, their method of preparation and their application as anti-fungal agents” (Aventis Pharma S.A., priority 1997, published 2004)

System: Glucane Synthesis of Candida Albicans (membranes of Candida albicans)
Experiment: Inhibition of the glucane synthesis of Candida albicans (14C-UDP glucose incorporation by purified membranes)
Type: biochemical
Settings: Candida albicans membrane proteins, 25° C., 1 hour, result in words
Description: A—Inhibition of the Glucane Synthesis of Candida Albicans.
The membranes of Candida albicans are purified according to the process described by Tang and al Antimicrob. Agents Chemother 35, 99-103, 1991. 22.5 μg of membrane proteins are incubated in a mixture of 2 Mm of 14C-UDP glucose (specific activity=0.34 mCi./mmol, 50 μg of α-amylase, 1 Mm of dithiotreitol (DTT), 1 Mm EDTA, 100 Mm NaF, 7 μM of GTP-γ-S, 1M of sucrose and 5 oMm OF Ttris-HCL (pH 7.8) in a volume of 100 μl. The medium is incubated at 25° C. for 1 hour and the reaction terminated by addition of TCA to a final concentration of 5%. The reaction medium is transferred onto a pre-humidified glass fibre filter. The filter is washed, dried and its radioactivity is counted.
Mulundocandin is used as positive control.
The control of the medium is carried out with the same quantity of DMSO 1%.

Substance | Inhibition of the glucane synthesis of Candida albicans
(±) Trifluoroacetate of 1-[4-[(aminoiminomethyl) hydrazono]-N2-(12-methyl-1-oxotetradecyl)-L-ornithine]4-[4-(4-hydroxyphenyl)-L-threonine]-5-L serine echinocandin B [Example 11] | good activity
Trifluoroacetate of 1-[4-[(2-aminoethyl) amino]-N2-(12-methyl-1-oxotetradecyl)-L-ornithine]4-[4-(4-hydroxyphenyl)-L-threonine]-5-L serine echinocandin B (isomer A and isomer B) [Example 9] | good activity
Trifluoroacetate of 1-[4-[(2-aminoethyl) amino]N2-[[4′-(octyloxy)[1.1′-biphenyl]-4-[carbonyl]-L-ornithine]4-[4-(4-(4-hydroxyphenyl)-L-threonine]-5-L serine echinocandin B (isomer A) [Example 14] | good activity
